These results are taken from paper PMC4994520 (European journal of medicinal chemistry, 2012).

The target in this test is human PDE5 (Homo sapiens, UniProt O76074). The experiment in a line: PDE5 inhibition, IMAP fluorescence polarization phosphodiesterase assay. It is filed as biochemical. Conditions: for inhibition at 10 µM: read-out: % PDE5 inhibition at 10 μM. For orientation: Polarisation of emitted light reports the rotation of a fluorescent probe.

As a reminder, the IC50 is the point on the concentration scale where inhibition reaches its midpoint. The low end stands for greater potency, the high end for weaker potency. By inhibition is commonly meant how much of the control response was suppressed. On to `COC(=O)[C@H]1Cc2c([nH]c3ccccc23)[C@@H](c2ccc(Br)cc2)N1C(=O)CCl` [Compound 21, Methyl (1R,3R)-1-(4-bromophenyl)-2-(chloroacetyl)-2,3,4,9-tetrahydro-1H-β-carboline-3-carboxylate], for which the IC50 is > 10000 nM and the inhibition at 10 µM is 25%.
For `CC(C)(C)N1C(=O)[C@H]2Cc3c([nH]c4ccccc34)[C@H](c3ccc(Br)cc3)N2C1=O` [Compound 18, (5S,11aR)-5-(4-Bromophenyl)-2-tert-butyl-5,6,11,11a-tetrahydro-1H-imidazo[1′,5′:1,6]pyrido[3,4-b]indole-1,3(2H)-dione] the same measures were 2200 nM and 78%.
As for `CCCCN1C(=O)[C@H]2Cc3c([nH]c4ccccc34)[C@@H](c3ccc(Br)cc3)N2C1=O` [Compound 9, (5R,11aR)-5-(4-Bromophenyl)-2-butyl-5,6,11,11a-tetrahydro-1H-imidazo[1′,5′:1,6]pyrido[3,4-b]indole-1,3(2H)-dione], the IC50 is 230 nM and the inhibition at 10 µM turned out to be 98.7%.
On the same counts, the results for `CCC(C)N1C(=O)[C@H]2Cc3c([nH]c4ccccc34)[C@@H](c3ccc(Br)cc3)N2C1=O` (stereo partly drawn) [Compound 13, (5R,11aR)-5-(4-Bromophenyl)-2-sec-butyl-5,6,11,11a-tetrahydro-1H-imidazo[1′,5′:1,6]pyrido[3,4-b]indole-1,3(2H)-dione] are 370 nM and 83%.
As to `CC(C)(C)N1CC(=O)N2[C@H](c3ccc(Br)cc3)c3[nH]c4ccccc4c3C[C@@H]2C1=O` [Compound 37, (6R,12aR)-6-(4-Bromophenyl)-2-tert-butyl-2,3,6,7,12,12a-hexahydropyrazino [1′,2′:1,6]pyrido[3,4-b]indole-1,4-dione], the IC50 is > 10000 nM and the inhibition at 10 µM amounted to 30%.
`CCC(C)N1C(=O)[C@@H]2Cc3c([nH]c4ccccc34)[C@H](c3ccc(Br)cc3)N2C1=O` (stereo partly drawn) [Compound 15, (5S,11aS)-5-(4-Bromophenyl)-2-sec-butyl-5,6,11,11a-tetrahydro-1H-imidazo[1′,5′:1,6]pyrido[3,4-b]indole-1,3(2H)-dione]: the IC50 was found to be 3300 nM and the inhibition at 10 µM is 72%.
For `CC(C)(C)N1C(=O)[C@H]2Cc3c([nH]c4ccccc34)[C@@H](c3ccc(Br)cc3)N2C1=O` [Compound 17, (5R,11aR)-5-(4-Bromophenyl)-2-tert-butyl-5,6,11,11a-tetrahydro-1H-imidazo[1′,5′:1,6]pyrido[3,4-b]indole-1,3(2H)-dione], half-maximal inhibition (IC50) required 270 nM and the inhibition at 10 µM came out at 91%.
Turning to `CCN1CC(=O)N2[C@H](c3ccc(Br)cc3)c3[nH]c4ccccc4c3C[C@H]2C1=O` [Compound 32, (6R,12aS)-2-Ethyl-6-(4-bromophenyl)-2,3,6,7,12,12a-hexahydropyrazino [1′,2′:1,6]pyrido[3,4-b]indole-1,4-dione], the IC50 was < 10 nM and the inhibition at 10 µM came out at 98.7%.
Consider `CCCCN1CC(=O)N2[C@H](c3ccc(Br)cc3)c3[nH]c4ccccc4c3C[C@H]2C1=O` [Compound 36, (6R,12aS)-2-Butyl-6-(4-bromophenyl)-2,3,6,7,12,12a-hexahydropyrazino [1′,2′:1,6]pyrido[3,4-b]indole-1,4-dione], for which the inhibition at 10 µM worked out at 92%.
`CN1CC(=O)N2[C@@H](c3ccc(Br)cc3)c3[nH]c4ccccc4c3C[C@@H]2C1=O` [Compound 26, (6S,12aR)-6-(4-Bromophenyl)-2-methyl-2,3,6,7,12,12a-hexahydropyrazino [1′,2′:1,6]pyrido[3,4-b]indole-1,4-dione]: half-maximal inhibition (IC50) required 6600 nM and the inhibition at 10 µM came out at 94%.
For `CCCCN1C(=O)[C@@H]2Cc3c([nH]c4ccccc34)[C@H](c3ccc(Br)cc3)N2C1=O` [Compound 11, (5S,11aS)-5-(4-Bromophenyl)-2-butyl-5,6,11,11a-tetrahydro-1H-imidazo[1′,5′:1,6]pyrido[3,4-b]indole-1,3(2H)-dione], the IC50 was > 10000 nM and the inhibition at 10 µM stood at 81.5%.
